# Columns and labels:
# Type in all cases: cell-based
# [1] = tested on: RT-112 (FGFR3-Tacc3 fusion) cells; experiment: cell proliferation assay (CellTiterGlo), RT-112 cells; settings: Homo sapiens, RT-112, RT112 cells, 72 hours
# Procedure, shortened: (§1)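 To assess antiproliferative activity, plated cells receive test compound across a concentration range, with DMSO as vehicle control. Remaining viable cells are quantified from intracellular ATP by luminescence. Growth relative to vehicle-treated cells gives the IC50.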
# [2] = tested on: SNU-16 (FGFR2-amplification) cells; experiment: cell proliferation assay (CellTiterGlo), SNU-16 cells; settings: Homo sapiens, 72 hours
# Procedure, shortened: as §1
# [3] = tested on: UM-UC-14 (FGFR3-S249C) cells; experiment: cell proliferation assay (CellTiterGlo), UM-UC-14 cells; settings: UMUC14, 72 h
# Procedure, shortened: as §1
# [4] = tested on: DMS-114 (FGFR1 overexpression) cells; experiment: cell proliferation assay (CellTiterGlo), DMS-114 cells; settings: Homo sapiens, DMS-114, 72 h
# Procedure, shortened: as §1
IC50 [2] [nM],Structure (SMILES),IC50 [1] [nM],IC50 [3] [nM],IC50 [4] [nM]
20 to 100,Cc1nc2ccc(Oc3ccc4ncc(-c5cnn([C@H]6CCNC[C@@H]6F)c5)nc4c3C)cc2[nH]1 [Compound 288],20 to 100,20 to 100,≥ 400
20 to 100,Cc1nc2ccc(Oc3ccc4ncc(-c5cnn(C6CCNCC6)c5)nc4c3C3CC3)cc2[nH]1 [Compound 289],20 to 100,20 to 100,100 to 400
20 to 100,Cc1nc2ccc(Oc3ccc4ncc(-c5cnn(CC6CC(N7CCC7)C6)c5)nc4c3Cl)cc2[nH]1 (stereo not drawn) [Compound 291],20 to 100,20 to 100,≥ 400
20 to 100,Cc1nc2ccc(Oc3ccc4ncc(-c5cnn(C6CCNCC6)c5)nc4c3C)cc2[nH]1 [Compound 293],20 to 100,20 to 100,100 to 400
20 to 100,Cc1nc2ccc(Oc3ccc4ncc(-c5cnn(CCC6CCN(CC(F)(F)F)CC6)c5)nc4c3Cl)cc2[nH]1 [Compound 296],20 to 100,20 to 100,≥ 400
20 to 100,Cc1nc2ccc(Oc3ccc4ncc(-c5cnn(CC6CC(N(C)C)C6)c5)nc4c3Cl)cc2[nH]1 (stereo not drawn) [Compound 297],20 to 100,20 to 100,≥ 400
20 to 100,Cc1nc2ccc(Oc3ccc4ncc(-c5cnn(CC6OCC7(COC7)CO6)c5)nc4c3Cl)cc2[nH]1 [Compound 299],20 to 100,20 to 100,≥ 400
20 to 100,CCC(=O)N1CCC(CCn2cc(-c3cnc4ccc(Oc5ccc6nc(C)[nH]c6c5)c(Cl)c4n3)cn2)CC1 [Compound 300],20 to 100,< 20,≥ 400
20 to 100,Cc1nc2ccc(Oc3ccc4ncc(-c5cnn(C6CCN(CC(F)(F)F)CC6)c5)nc4c3Cl)cc2[nH]1 [Compound 303],20 to 100,20 to 100,≥ 400
< 20,Cc1nc2ccc(Oc3ccc4ncc(-c5cnn(CCC6CCN(C)CC6)c5)nc4c3Cl)cc2[nH]1 [Compound 305],< 20,< 20,100 to 400
< 20,Cc1nc2ccc(Oc3ccc4ncc(-c5cnn(C[C@@H]6CCS(=O)(=O)C6)c5)nc4c3Cl)cc2[nH]1 [Compound 307],< 20,20 to 100,100 to 400
20 to 100,Cc1nc2ccc(Oc3ccc4ncc(-c5cnn(CC6CN(CC#N)C6)c5)nc4c3Cl)cc2[nH]1 [Compound 310],20 to 100,20 to 100,≥ 400
≥ 400,Clc1c(Oc2ccn3cncc3c2)ccc2ncc(-c3cnn(CC4CCN(C5COC5)CC4)c3)nc12 [Compound 312],≥ 400,≥ 400,≥ 400
20 to 100,CNC(=O)N1CC2CC1CC2Cn1cc(-c2cnc3ccc(Oc4ccc5nc(C)[nH]c5c4)c(Cl)c3n2)cn1 (stereo not drawn) [Compound 313],20 to 100,20 to 100,≥ 400
20 to 100,Cc1nc2ccc(Oc3ccc4ncc(-c5cnn(CC6CN(CC(=O)N7CC(O)C7)C6)c5)nc4c3Cl)cc2[nH]1 [Compound 314],20 to 100,100 to 400,100 to 400
20 to 100,CNC(=O)CN1CC(Cn2cc(-c3cnc4ccc(Oc5ccc6nc(C)[nH]c6c5)c(Cl)c4n3)cn2)C1 [Compound 315],20 to 100,20 to 100,≥ 400
20 to 100,COCCN1CCC(n2cc(-c3cnc4ccc(Oc5ccc6nc(C)[nH]c6c5)c(Cl)c4n3)cn2)CC1 [Compound 316],20 to 100,20 to 100,≥ 400
≥ 400,Cc1nc2ccc(Oc3ccc4ncc(-c5cnn(C6(CCO)CCNCC6)c5)nc4c3Cl)cc2[nH]1 [Compound 318],≥ 400,≥ 400,≥ 400
20 to 100,Cc1nc2ccc(Oc3ccc4ncc(-c5cnn(CC(=O)N6CCC6)c5)nc4c3Cl)cc2[nH]1 [Compound 319],20 to 100,20 to 100,≥ 400
< 20,Cc1nc2ccc(Oc3ccc4ncc(-c5cnn(CC6CC(O)C6)c5)nc4c3Cl)cc2[nH]1 (stereo not drawn) [Compound 325],< 20,20 to 100,≥ 400
20 to 100,Cc1nc2ccc(Oc3ccc4ncc(-c5cnn(CC(N)=O)c5)nc4c3Cl)cc2[nH]1 [Compound 326],100 to 400,100 to 400,≥ 400
< 20,Cc1nc2ccc(Oc3ccc4ncc(-c5cnn(CC6CCC(=O)CC6)c5)nc4c3Cl)cc2[nH]1 [Compound 327],< 20,< 20,≥ 400

# Second part, the molecule before the results:
Structure (SMILES),IC50 [2] [nM],IC50 [1] [nM],IC50 [3] [nM],IC50 [4] [nM]
Cc1nc2ccc(Oc3ccc4ncc(-c5cnn(CC(=O)N6CCOCC6)c5)nc4c3Cl)cc2[nH]1 [Compound 285],20 to 100,20 to 100,20 to 100,≥ 400
Cc1nc2ccc(Oc3ccc4ncc(-c5cnn(CC6CCC(F)(F)C6)c5)nc4c3Cl)cc2[nH]1 (stereo not drawn) [Compound 286],100 to 400,20 to 100,20 to 100,≥ 400
Cc1nc2ccc(Oc3ccc4ncc(-c5cnn(CC(=O)N6CCC(F)(F)C6)c5)nc4c3Cl)cc2[nH]1 [Compound 287],20 to 100,20 to 100,20 to 100,≥ 400
Cc1nc2ccc(Oc3ccc4ncc(-c5cnn(CC(=O)N6CCC(F)C6)c5)nc4c3Cl)cc2[nH]1 (stereo not drawn) [Compound 290],20 to 100,20 to 100,20 to 100,≥ 400
Cc1nc2ccc(Oc3ccc4ncc(-c5cnn(CC6CCNCC6)c5)nc4c3C)cc2[nH]1 [Compound 292],100 to 400,100 to 400,20 to 100,≥ 400
Cc1nc2ccc(Oc3ccc4ncc(-c5cnn(CCC6CCN(C7COC7)CC6)c5)nc4c3Cl)cc2[nH]1 [Compound 294],20 to 100,20 to 100,< 20,100 to 400
Cc1nc2ccc(Oc3ccc4ncc(-c5cnn(C67CCN(CC6)C7)c5)nc4c3Cl)cc2[nH]1 [Compound 295],≥ 400,≥ 400,≥ 400,≥ 400
C=C1COC(Cn2cc(-c3cnc4ccc(Oc5ccc6nc(C)[nH]c6c5)c(Cl)c4n3)cn2)OC1 [Compound 298],100 to 400,20 to 100,20 to 100,≥ 400
Cc1nc2ccc(Oc3ccc4ncc(-c5cnn(C6CCN(CCO)CC6)c5)nc4c3Cl)cc2[nH]1 [Compound 301],< 20,< 20,20 to 100,≥ 400
Cc1nc2ccc(Oc3ccc4ncc(-c5cnn(CC6CC(F)(F)C6)c5)nc4c3C)cc2[nH]1 [Compound 302],100 to 400,100 to 400,100 to 400,≥ 400
Cc1nc2ccc(Oc3ccc4ncc(-c5cnn(CCC6CCNCC6)c5)nc4c3Cl)cc2[nH]1 [Compound 304],100 to 400,20 to 100,20 to 100,≥ 400
Cc1nc2ccc(Oc3ccc4ncc(-c5cnn(CC(=O)N6CCC(O)C6)c5)nc4c3Cl)cc2[nH]1 (stereo not drawn) [Compound 306],100 to 400,20 to 100,100 to 400,≥ 400
Cc1nc2ccc(Oc3ccc4ncc(-c5cnn(CC6CC(=O)C6)c5)nc4c3Cl)cc2[nH]1 [Compound 308],20 to 100,20 to 100,20 to 100,≥ 400
Cc1nc2ccc(Oc3ccc4ncc(-c5cnn(C6CC(N7CC(O)C7)C6)c5)nc4c3Cl)cc2[nH]1 (stereo not drawn) [Compound 309],20 to 100,20 to 100,20 to 100,100 to 400
Cc1nc2ccc(Oc3ccc4ncc(-c5cnn(C[C@H]6CCS(=O)(=O)C6)c5)nc4c3Cl)cc2[nH]1 [Compound 311],< 20,< 20,20 to 100,100 to 400
Cc1nc2ccc(Oc3ccc4ncc(-c5cnn(CC(=O)N6CC(O)C6)c5)nc4c3Cl)cc2[nH]1 [Compound 317],20 to 100,100 to 400,≥ 400,≥ 400
Cc1nc2ccc(Oc3ccc4ncc(-c5cnn(CC6CN(CC(=O)N7CCC7)C6)c5)nc4c3Cl)cc2[nH]1 [Compound 320],20 to 100,20 to 100,100 to 400,≥ 400
CNC(=O)N1CCC(n2cc(-c3cnc4ccc(Oc5ccc6nc(C)[nH]c6c5)c(Cl)c4n3)cn2)CC1 [Compound 321],20 to 100,20 to 100,20 to 100,≥ 400
CNC(=O)CN1CCC(n2cc(-c3cnc4ccc(Oc5ccc6nc(C)[nH]c6c5)c(Cl)c4n3)cn2)CC1 [Compound 322],20 to 100,< 20,20 to 100,≥ 400
Cc1nc2ccc(Oc3ccc4ncc(-c5cnn([C@H]6C[C@@H](N7CCOCC7)C6)c5)nc4c3Cl)cc2[nH]1 [Compound 323],< 20,20 to 100,20 to 100,≥ 400
Cc1nc2ccc(Oc3ccc4ncc(-c5cnn([C@H]6C[C@H](N7CCOCC7)C6)c5)nc4c3Cl)cc2[nH]1 [Compound 324],20 to 100,20 to 100,20 to 100,≥ 400
Cc1nc2ccc(Oc3ccc4ncc(-c5cnn(CC6CC7CC6CN7C(N)=O)c5)nc4c3Cl)cc2[nH]1 (stereo not drawn) [Compound 328],20 to 100,20 to 100,20 to 100,≥ 400
Cc1nc2ccc(Oc3ccc4ncc(-c5cnn(CC6CC7CC6CN7CC(N)=O)c5)nc4c3Cl)cc2[nH]1 (stereo not drawn) [Compound 329],< 20,< 20,< 20,100 to 400
